Earlier results, collected in patent US20200306335A1, “A Dietary Composition Comprising Plant-Based Sources of Fatty Acids” (priority 2017, published 2020).

Tests used:
5 alpha-R Type 2 = molecular target: T1, 5 alpha-R Type 2 (Homo sapiens, UniProt P31213); settings: result in words, from a study cited in the background
T1 sequence (P31213 1-254): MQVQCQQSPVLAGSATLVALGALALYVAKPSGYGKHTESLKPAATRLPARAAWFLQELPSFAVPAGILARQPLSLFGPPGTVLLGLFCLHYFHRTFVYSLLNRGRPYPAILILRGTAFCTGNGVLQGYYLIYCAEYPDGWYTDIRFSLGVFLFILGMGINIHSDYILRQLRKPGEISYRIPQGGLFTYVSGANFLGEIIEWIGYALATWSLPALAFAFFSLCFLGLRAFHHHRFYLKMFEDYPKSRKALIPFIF

5 alpha-R Type 1 = molecular target: T2, 5 alpha-R Type 1 (Homo sapiens, UniProt P18405); settings: result in words, from a study cited in the background
T2 sequence (P18405 1-259): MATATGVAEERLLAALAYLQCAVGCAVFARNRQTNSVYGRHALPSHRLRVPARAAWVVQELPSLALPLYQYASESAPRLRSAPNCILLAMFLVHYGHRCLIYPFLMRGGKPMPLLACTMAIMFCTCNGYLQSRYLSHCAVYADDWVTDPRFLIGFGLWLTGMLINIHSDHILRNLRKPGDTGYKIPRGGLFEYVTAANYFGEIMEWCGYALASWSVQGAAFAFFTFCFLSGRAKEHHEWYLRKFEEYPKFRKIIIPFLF

Compound	inhibition of 5 alpha-R Type 2 (5 alpha-R Type 2)	inhibition of 5 alpha-R Type 1 (5 alpha-R Type 1)
CCCCCCCCCCCC(=O)O [Lauric acid, lauric acid]	active inhibitor	active inhibitor
CCCCCCCCCCCCCC(=O)O [Myristic acid, myristic acid]	strongly inhibit	–
CCCCCCCC/C=C\CCCCCCCC(=O)O [Oleic, oleic acid]	little to no inhibitory activity	active inhibitors
CCCCC/C=C\C/C=C\CCCCCCCC(=O)O [linoleic acid]	little to no inhibitory activity	active inhibitors
